What was measured:
[1] = Plasma and urine PMEA following oral Compound 4 and bis POM PMEA in rats; assay type: in vivo, rat; conditions: 30 mg/kg PMEA equivalents p.o.
Protocol: PMEA levels (0–12 h) were quantified in plasma by fluorescence HPLC following chloroacetaldehyde derivatization. PMEA levels in urine were quantified 48 hours after treatment.
Plasma drug levels: PMEA was determined in plasma by a modification of the procedure described in the literature (Shaw J P, Louie M S, Krishnamurthy V V, Arimilli M N, Jones R J, Bidgood A M, Lee W A, & Cundy K C, Drug Metabolism and Disposition, 25:362–366 (1997)). Plasma (100 μL) samples were extracted with 2 volumes of 0.1% TFA in acetonitrile. Following centrifugation to remove the precipitate, the supernatant was evaporated to dryness. The dried plasma was reconstituted with 200 μL of the derivatization cocktail consisting of 0.34% chloroacetaldehyde in 100 mM sodium acetate pH 4.5 and incubated at 95° C. for 40 min. The samples were evaporated to dryness and reconstituted with mobile phase for analysis by HPLC. The derivatized PMEA was analyzed by an HPLC system (Hewlett Packard 1090) consisting of a Beckman Ultrasphere ODS 4.6×150 mm (5 μm) column developed with a 20-min gradient of 0–30% acetonitrile in 20 mM potassium phosphate pH 6.2. Fluorescence was monitored at an excitation and emission wavelength of 240 and 420 nm, respectively. The column temperature was 40° C. and the flow rate was 1.5 mL/min. The derivatized PMEA was detected and quantified by comparison to an authentic standard prepared in plasma and eluted at approximately 6 minutes. The limit of quantitation of PMEA, was 0.25 μg/mL.
Urinary excretion studies: The percent excretion of PMEA in urine was assessed by a modification of a previously described procedure (Russell J W, Marrero D, Whiterock V J, & Klunk L J, J Chromatog, 572:321–326 (1991)). Aliquots (0.25–0.5 mL) of urine samples and spiked standards were incubated with an equal volume of 17% (v/v) of 50% chloroacetaldehyde in 100 mM sodium acetate pH 4.5 at 50° C. for 4 hrs. Following centrifugation, the supernatant was analyzed by the HPLC method described in the previous section.

[2] = tested on: freshly isolated rat hepatocytes; conditions: 250 μM prodrug
Protocol: PMEA prodrugs were tested.
Hepatocytes were prepared from fed Sprague-Dawley rats (250–300 g) according to the procedure of Berry and Friend (Berry, M. N. Friend, D. S., J. Cell Biol. 43:506–520 (1969)) as modified by Groen (Groen, A. K. et al., Eur. J. Biochem 122:87–93 (1982)). Hepatocytes (60 mg/ml wet weight, >85% trypan blue viability) were incubated in 2 ml of krebs-bicarbonate buffer containing 20 mM glucose, and 1 mg/ml BSA for 4 hours in the presence of 250 μM PMEA prodrugs (from 25 mM stock solutions of prodrugs in methanol). At appropriate time points throughout the incubation (0, 1, 2, 4 hours), 400-μl aliquots of the cell suspension were taken and centrifuged through a silicon/mineral oil layer into 10% perchloric acid to extract intracellular nucleotides. The acidic cell extracts were neutralized with 0.3 volumes of 3M KOH/3M […] before evaluating PMEApp levels by ion exchange HPLC (Hewlett Packard 1050) using a Whatman Partisphere SAX (5 μm, 4.6×125 mm) column. Samples were loaded onto the column in 0.3M-ammonium phosphate buffer pH 3.5 and eluted from the column with a gradient to 0.8 M ammonium phosphate pH 3.5.

[3] = tested on: liver microsomes isolated from rats induced with dexamethasone; test: In vitro activation of PMEA prodrug analogues to PMEA by rat liver microsomes; conditions: 1 mg/mL microsomes, 2 mM NADPH, 5 minutes, 37° C., PMEA formation
Protocol: PMEA prodrug analogues were tested for activation to PMEA in reactions catalyzed by the microsomal fraction of rat liver.
Prodrugs (25 and 250 μM) were tested for activation by liver microsomes isolated from rats induced with dexamethasone to enhance CYP3A4 activity (Human Biologics Inc., Phoenix Ariz.). Reactions were conducted in 0.1 M KH2PO4, pH 7.4, in the presence of 2 mM NADPH and liver microsomes (1 mg/mL). Reaction mixtures were incubated for 5 minutes in an Eppendorf Thermomixer 5436 (37° C., speed 6). Reactions were terminated by the addition of 1.5 volumes of methanol. The resulting extracts were clarified by centrifugation at 14,000 rpm in an Eppendorf microfuge (20 minutes). The supernatants (200 μL) were evaporated under vacuum and heat to dryness before resuspending in 80 μL of buffer A (see below) for PMEA analysis. Spiked standards of 9-[2-(phosophonomethoxy)ethyl]adenine, (PMEA, lot 980397, Metabasis Therapeutics) were prepared in the same reaction mixture and processed in an identical fashion. After resuspension, samples were analyzed by reverse phase HPLC (Altima C-18 column) with use of an ion-pairing buffer (Buffer A) consisting of 10 mM ammonium phosphate, 2.5 mM octyltriethylammonium phosphate, pH 5.5. Samples were loaded in Buffer A and eluted with a methanol gradient from 40% to 80% over 20 minutes. Detection was at 265 nm.

[4] = Protocol: Intact prodrug and the metabolite 9-[2-(phosophonomethoxy)ethyl]adenine (PMEA) and the respective mono-acids were measured in the plasma at 0 (predose), 0.33, 1, 3, 5, 8, and 12 hrs post dose by HPLC using fluorescence detection. The pharmacokinetic parameters were calculated based on noncompartmental analysis of the concentration-time profile.
[5] = PMEApp accumulation in liver organ following oral administration to normal fasted rats; assay type: in vivo, rat; conditions: 30 mg/kg PMEA equivalents p.o.
Protocol: PMEA prodrugs were tested in vivo to identify prodrugs with suitable oral bioavailability and favorable intrahepatic activation rates.
Following oral administration of 30-mg/kg prodrug (PMEA equivalents) to normal, fasted rats, liver organ samples were freeze-clamped at 8 hr. […] The retention time of PMEApp was 18.6 minutes.

Nc1ncnc2c1ncn2CCOCP1(=O)OCCC(c2cccc(Cl)c2)O1 (racemic) [Compound 4]
AUC0-12h of PMEA in plasma ([1]; fasted rats): 3.5 nmol·h/mL | Fold lower plasma PMEA AUC0-12h than following bis POM PMEA ([1]; rats): 6 fold | Fold lower plasma PMEA Cmax than following bis POM PMEA ([1]; rats): 13 fold | Fold lower urinary levels of PMEA than following bis POM PMEA ([1]; rats): 5 fold | Urinary levels of PMEA ([1]; rats, urine 48 hours after treatment): 4.1 % dose | Rat Hepatocytes, PMEApp formation, 250 μM, AUC 0–4 h [2]: 109.3 nmol·h/g | Activation Rate, Dex. Rat Liver Microsomes, 25 μM ([3]; 25 μM prodrug): 6.2 nmol/min/mg | Activation Rate, Dex. Rat Liver Microsomes, 250 μM ([3]; 250 μM prodrug): 10.9 nmol/min/mg | Plasma half-life of breakdown product 9-{2-[1-{(3-chlorophenyl)-1-propyl-3-hydroxy}phosphonomethoxy]ethyl}adenine ([4]; after 30 mg/kg PMEA equivalents p.o. of prodrug, rats): ~2.1 h | Intact prodrug in plasma ([4]; rat, in vivo): observed in plasma | Rats, PMEApp levels in liver organ @ 8 hr., 30 mg/kg, p.o. [5]: 6.6 nmol/g

— patent publication US7214668B2, “Phosphonic acid based prodrugs of PMEA and its analogues” (Metabasis Therapeutics, Inc., priority 2002, dated 2007)
